Broadly, the pIC50 is the IC50 on a negative log10 scale, so that one unit is a factor of ten. The low end stands for a large IC50, the high end for a small IC50.

For the assay, the system named is P. falciparum 3D7 growth, pLDH absorbance. The assay can be described thus: P. falciparum 3D7 growth inhibition, dose response, strain 3D7 (AID 2305).

pIC50: −log10 of the molar value.

Consider `OC(CNC1CCCCC1)Cn1c2ccc(I)cc2c2cc(I)ccc21` (stereo not drawn), for which the pIC50 is 6.47. Under `CCCCn1c(C(C)Oc2ccc(Cl)cc2Cl)nc2cc(S(N)(=O)=O)ccc21` (stereo not drawn) stands 6.15; under `COc1ccc(-c2cccc(NC(=O)c3ccc(C#N)cc3)c2)cc1CN(C)CCN(C)C`, 7.15. As for `Fc1ccc2[nH]cc(CCN3CCC(CNCc4ccccc4)CC3)c2c1`, the figure is 7.52. Under `COc1cccc(Cc2cnc3nc(N)nc(N)c3c2C)c1` stands 6.77.

For the compound `Cc1cccc(-c2cccc(CNc3nc(NCCc4ccc(O)cc4)nc(N4CCNCC4)n3)c2)c1`, the pIC50 is 5.92.

Consider `COc1ccc2nccc([C@@H](O)CN3CCC(NCc4cc5cccc(OC)c5o4)CC3)c2c1`, for which the pIC50 is 6.10. This pIC50 and that of the compound before are within 0.2 log units of each other. Under `O=C(/C=C/c1ccc(Cl)cc1Cl)NC1CCC(CN2CCC(c3c[nH]c4ccccc34)CC2)CC1` (stereo not drawn) stands 6.10; under `O=C(/C=C/c1ccc(Cl)c(Cl)c1)NCCCCCN1CCC(NC(=O)Nc2ccc(F)c(F)c2)CC1`, 6.08.

The compound `O[C@@H](c1ccc2ccccc2c1)[C@@H]1CN(CCc2ccccc2)CC[C@@]1(O)c1ccccc1` had a negative-log IC50 (pIC50) of 6.26. As for `CCCN(CCC)CC(O)COc1ccccc1C(=O)Nc1ccccc1` (stereo not drawn), the pIC50 was 6.10. The pIC50 values of the last two compounds are within 0.2 log units of each other. The compound `Cc1cccc(-c2nc3[nH]c(=O)cc(NC(=O)C(C)C)n3n2)c1` had a negative logarithm of the IC50 (pIC50) of 6.38. Against the preceding compound, the pIC50 is 0.28 log units higher.

For the compound `CCN1CCN(CCCNc2c3ccc(Cl)cc3nc3ccc(OC)cc23)CC1`, the negative logarithm of the IC50 (pIC50) was 6.82. The compound `O=[N+]([O-])c1cccc(CNCC2CCN(Cc3ccc4ccccc4c3)CC2)c1` showed a pIC50 of 6.06. As for `COc1cc2c(cc1N1CCN(C)CC1)N(C(=O)Nc1ccc(-c3ccncc3)c(Cl)c1Cl)CC2`, the pIC50 is 6.21.

With `Cc1nc(Nc2ccncc2)cc(-c2ccncc2)n1`, the pIC50 is 6.14. Under `Cc1ccccc1C1CCN(c2ccc(NC(=O)c3ccc(Cl)nc3)cc2)CC1` stands 5.99; under `O=C(Nc1ccc(Cl)c(Cl)c1)N1CCC(CNCc2cccc([N+](=O)[O-])c2)CC1`, 6.01; under `CCC(C)CN1CCN(c2cc(NC(=O)c3cccs3)ccn2)C(C)C1` (stereo not drawn), 6.00. The compound `CN(C)CCNc1ncnc2c1[nH]c1ccc(Cl)cc12` gave a pIC50 of 6.22.

Take `CC(C)COc1ccc(Cl)cc1Cc1nc(-c2nc3ccc(CN4CCN(C)CC4)cc3[nH]2)co1`: the pIC50 is 6.04.

Consider `COc1ccc2nccc([C@@H](O)CN3CCC(NC(=O)/C=C/c4ccc5ccccc5n4)CC3)c2c1`, for which the pIC50 is 6.00. The pIC50 values of the last two compounds are within 0.2 log units of each other. Under `COc1ccc(Oc2ccccc2CNCC2CCN(CC3CCCCC3)CC2)cc1` stands 6.05; under `COc1ccc(C=NNc2ccnc3ccccc23)c2ccccc12`, 6.15. As for `O=C(/C=C/c1cccc(Cl)c1)N1CCC(C(O)CN2CCC3(CC2)CN(C(=O)/C=C/c2cccc(Cl)c2)c2ccccc23)CC1` (stereo not drawn), the figure is 6.05. For `CCN(CCCN1CCCCC1)c1cc(C)nc(Nc2cc(C)ccc2C)n1`, the pIC50 is 6.18. `CN1CCN(CC(=O)Nc2cccc(-c3cccc(-c4nc5ccc(C(F)(F)F)cc5[nH]4)c3)c2)CC1`: the pIC50 is 6.43. For the compound `c1ccc(C2CCN(Cc3ccc(-c4c[nH]c5nc(NC6CCCC6)ncc45)cc3)CC2)cc1`, the pIC50 was 6.00. Under `Oc1ccc(CN2Cc3ccccc3OC3(CCN(Cc4c[nH]c5cnccc45)CC3)C2)cc1` stands 5.93; under `CCNC[C@@H](O)[C@H](Cc1ccccc1)NC(=O)c1cc2c3c(c1)c(CC)cn3CCS(=O)(=O)N2C`, 6.09; under `Cc1cc(N[C@@H](CC(C)C)C(=O)NC2CCCC2)nc(NCc2ccccc2C)n1`, 5.87.

Compound `COc1ccc2nccc(N3CCC(CCNCc4ccc5c(n4)NC(=O)CS5)CC3)c2c1` had a negative-log IC50 (pIC50) of 6.68. As for `O=C(CCC1CCCC1)N(Cc1ccc(-c2ccc(CNCCc3ccccc3)cc2)cc1)C1CCCNC1` (stereo not drawn), the figure is 5.91; as for `N#Cc1ccnc(-c2ccc(CNC3CCN(CC4Cn5c(=O)ccc6ccc(F)c4c65)CC3)cc2)c1` (stereo not drawn), 5.91; as for `C[C@H](NCCC1CCC(NC(=O)N[C@H](C)C(O)(c2ccccc2)c2ccccc2)CC1)c1cccc2ccccc12` (stereo partly drawn), 5.96.

`Cc1ncc(CN2CCC(C(=O)Nc3ccc(-c4nc5ccccc5o4)cc3)CC2)s1` gave a pIC50 of 6.41. Consider `C=CCCCNCC(NCCCNc1cc(=O)c2ccccc2[nH]1)c1cc(Br)cc(Br)c1` (stereo not drawn), for which the pIC50 was 6.05. Under `Cc1cccc2[nH]c(-c3ccc(-c4cccc(CNCCc5ccncc5)c4)cc3)nc12` stands 6.70; under `CCn1c(-c2nonc2N)nc2c(-c3ccccc3)ncc(OCCCNCCCN3CCOCC3)c21`, 6.17; under `COc1ccc2nc(C)cc(NCc3cccc4ccccc34)c2c1`, 6.66. In turn, `CCN(CC)CCOC(=O)c1ccc(NC(=O)c2cn(-c3ccccc3)nc2-c2cccs2)cc1` showed a pIC50 of 6.42. This pIC50 is 0.24 log units lower than that of the compound before.

Take `O=C(/C=C/c1ccc(Cl)c(Cl)c1)NCCCCCCN1CCN(C(=O)Nc2cc(Cl)nc(Cl)c2)CC1`: the pIC50 was 6.11. Compared with the last compound, the pIC50 is 0.31 log units lower. Under `O=C(Nc1ccc(C2=NC3CCCCC3N2)cc1)Nc1ccc(C2=NC3CCCCC3N2)cc1` (stereo not drawn) stands 6.74. In the case of `CNC(=O)C1Cc2c([nH]c3c(C)cccc23)C2(N1)C(=O)Nc1ccc(OC(F)(F)F)cc12` (stereo not drawn), the negative-log IC50 (pIC50) is 6.34. Compound `N#Cc1ccc2c(c1)CCN(CCC1CCC(NC(=O)c3cccc(-c4ccc(F)cc4)c3)CC1)CC2` (stereo not drawn) gave a negative logarithm of the IC50 (pIC50) of 6.09. Compound `O=C(Nc1cccc(-c2ccc(-c3nc4ccc(C(F)(F)F)cc4[nH]3)cc2)c1)c1ccncc1` gave a negative logarithm of the IC50 (pIC50) of 6.47.

The compound `CCOc1ccc(N(CC)S(=O)(=O)c2cc(Br)cc3c2N(C(=O)C2CC2)CC3)cc1` gave a pIC50 of 6.89. Under `COc1ccccc1NS(=O)(=O)c1cc(C(=O)Nc2ccc(N3CCOCC3)c(S(=O)(=O)Nc3ccccc3Cl)c2)ccc1Cl` stands 6.08; under `Cc1ccc(CC(C)NCC(O)c2cccc(C(F)(F)F)c2)c(C)c1` (stereo not drawn), 6.15. As for `O=C(Nc1ccccc1-c1ccccc1)C1CCCN1C(=O)Nc1ccc(Cl)cc1` (stereo not drawn), the figure is 6.10. Regarding `Nc1nccc2ccc(-c3ccnc(NCc4cccnc4)n3)cc12`, the negative logarithm of the IC50 (pIC50) was 6.34.

`O=C(CCCCCNC(=O)c1ccc(O)c(-c2ccc(Cl)c(Cl)c2)c1)NCCN1CCOCC1`: the pIC50 was 6.08. Against the preceding compound, the pIC50 is 0.26 log units lower.

`O=C(c1cccc(-c2cccc(-c3nc4ccc(C(F)(F)F)cc4[nH]3)c2)c1)N1CCCCC1CN1CCC(O)C1` (stereo not drawn) gave a pIC50 of 6.55. Under `COC(=O)c1ccc(CCCNCC(O)c2cccc(C(F)(F)F)c2)cc1` (stereo not drawn) stands 6.10; under `Cc1cccnc1CNc1nccc2c(C)c(C)[nH]c12`, 6.07. As to `O=C(Nc1cccc(CN2CCCN(Cc3ccc(O)cc3)CC2)c1)c1cccc(F)c1`, the pIC50 is 6.05.

`CCN1CCN(c2ccc(Nc3ccnc4ccc(Br)cc34)cc2)CC1` gave a pIC50 of 6.52. This pIC50 is 0.47 log units higher than that of the compound before. As for `Cc1ccc(C(=O)Nc2ccc(OC3CCN(CCC(C)C)C3)c(Cl)c2)cc1` (stereo not drawn), the figure is 6.00. As for `NC(=O)c1cnc2cc(-c3ccncc3)cc(Nc3ccc(NC(=O)C4CCCCC4)cc3)c2c1`, the figure is 6.64; as for `CC(C)(CN)c1nc(-c2ccc(Br)c(O)c2)c(-c2ccncc2)[nH]1`, 6.01. Under `NC(=O)Nc1ccc2c(Nc3ccc(OCc4ccccc4)cc3)ncnc2c1` stands 5.90; under `CC(C)(C)c1ccc(CN2CCCCC(NC(=O)c3cc(-c4cccc(F)c4)cs3)C2)cc1` (stereo not drawn), 6.11. The compound `CCOC(=O)c1ccc(N2CCN(c3cc(Cl)ccc3C)CC2)c(NC(=O)Nc2ccc(Cl)c(Cl)c2)c1` showed a negative logarithm of the IC50 (pIC50) of 6.24. Take `CC(C)c1ccc(C=CC(=O)N2CCC(CCN3CCC(c4c[nH]c5ccccc45)CC3)CC2)cc1`: the pIC50 is 5.90. Against the preceding compound, the pIC50 is 0.34 log units lower.

Take `CC(C)C1C(O)=C(c2ccc3ccccc3c2)C(=O)N1CC1CCCCC1` (stereo not drawn): the negative logarithm of the IC50 (pIC50) is 5.95. As for `O=C1C(c2ccccc2)=C(Nc2cccc(OC(F)(F)C(F)F)c2)c2ccccc21`, the figure is 6.74; as for `N#Cc1cccc(C(O)CN(Cc2ccccc2)Cc2ccccc2)c1` (stereo not drawn), 5.90; as for `CCC(C)(C)c1ccc2nc(N)nc(N)c2c1C`, 8.00. The compound `CC(=O)Nc1cc(C(=O)Nc2cccc(-c3csc(-c4nc5ccccc5[nH]4)c3)c2)ccc1C` gave a pIC50 of 6.34. Under `CC(C)NCc1ccc(-c2ccc(-c3nc4ccc(C(F)(F)F)cc4[nH]3)cc2)cc1` stands 6.57; under `Cc1cccc2[nH]c(-c3cccc(-c4cccc(NC(=O)c5ccncc5)c4)c3)nc12`, 6.62. Under `Cc1c(C)c2c(c(C)c1O)CC[C@@](C)(C(=O)NC1CCC(CN3CCC(c4c[nH]c5ccccc45)CC3)CC1)O2` (stereo partly drawn) stands 6.02; under `CCCC(C(=O)OCCN(CC)CC)(c1ccc(Cl)cc1)c1ccc(Cl)cc1`, 6.06; under `CC1(C)[C@H]2CC[C@@H](CNc3nc(NCCc4cnc[nH]4)nc(Nc4ccc(Oc5ccccc5)cc4)n3)[C@@H]1C2`, 6.17. `CN(CC(=O)Nc1cc(C(F)(F)F)ccc1-n1cncn1)Cc1nc2ccccc2s1` showed a negative-log IC50 (pIC50) of 5.85. Compared with the last compound, the pIC50 is 0.32 log units lower. As for `NC(=O)NC(=O)C=Cc1ccco1`, the figure is 6.82. Under `O=C(Nc1ccc(Cl)c(C(F)(F)F)c1)Nc1ccc(Cl)c(C(F)(F)F)c1` stands 6.11; under `Cc1cc(O)c(CN2CCN(Cc3cccs3)CC2)cc1C(C)C`, 6.14.

`COC(=O)c1ccc2nc(-c3cc(OC)c(O)c(C(=O)NC4CCN(Cc5ccccc5)CC4)c3)[nH]c2c1` had a pIC50 of 5.93.

The compound `Oc1ccc(CN2CCN(CCOC(c3ccccc3)c3ccccc3)CC2)cc1Cl` showed a negative logarithm of the IC50 (pIC50) of 6.09. Under `O=C(Nc1ccc(O)c(-c2nc3ccccc3[nH]2)c1)c1ccc([N+](=O)[O-])cc1` stands 6.49. Under `O=C(N[C@H]1CCN(Cc2ccc(OCCN3CCNCC3)c3ccccc23)C1)c1ccc(Cl)c(Cl)c1` stands 6.12; under `Cc1ccoc1C(=O)Nc1cccc(-c2cccc(-c3nc4c(C)cccc4[nH]3)c2)c1`, 6.17.

`CCCN1CC[C@@H](CCCc2ccnc3ccc(O)cc23)[C@@H](CC)C1` had a pIC50 of 6.05. Under `Cc1ccccc1Cn1c(CN2CCC(C(=O)NC3CC3)CC2)cc2ccccc21` stands 6.32.

`Nc1ncc(-c2cn[nH]c2)cc1-c1nc2ccc(Cl)cc2[nH]1` showed a negative logarithm of the IC50 (pIC50) of 6.10. Against the preceding compound, the pIC50 is 0.22 log units lower. Take `CC(C)c1ccc(NC(=O)c2ccc(CN3CCCN(Cc4cccc(Cl)c4)CC3)cc2)cc1`: the negative logarithm of the IC50 (pIC50) is 5.94. The pIC50 values of the last two compounds are within 0.2 log units of each other. As for `O=C(Nc1nc2cc(S(=O)(=O)NCCc3ccc(F)cc3)ccc2n1CCCn1ccnc1)c1ccc(Cl)cc1`, the figure is 5.95.

These data come from PubChem BioAssay AID2305 (GlaxoSmithKline (GSK), 2010).
